Legend:
mice [1] = assay: Open field test; assay type: in vivo; conditions: 6 min, Diazepam 2 mg/kg
Procedure: (§1) After the mice arrived, they were acclimatized for a week to enter the experiment. There were 12 mice in each group.
(§2) The normal group mice were gavaged with the same volume of purified water, and the gavage doses of other groups were illustrated in the results table section below. The mice were gavaged every morning at fixed time (9:00) with a gavage volume of 0.1 ml·10 g^−1. the administration lasted for one month, and behavioral assays were performed 1 h after the last gavage.
The test was performed inside an open field box with 50 cm long, 50 cm wide, and 50 cm deep. The bottom of the open field box was equally divided into nine squares, with the right middle area being the central area and the remaining area being the peripheral area. The bottom and surrounding of the open field box were all white. The test was performed in a quiet weak red light environment. At the beginning, the mice were placed in the center of the open field box, and the activity within 6 minutes was observed. Total running distance, running distance in central area and number of entries into central area of the mice were recorded.

mice [2] = assay: Light-dark box test; assay type: in vivo; conditions: gavage one month, 5 min, Diazepam 2 mg/kg
Procedure: as §1, §2
The light and dark box is composed of an integral box which is divided into two compartments (light area and dark area) of the same size (L×w×H=25 cm×25 cm×30 cm) by a middle gate (6.5 cm×6.5 cm). The light area is illuminated by white light, and the dark area is illuminated by red light. At the beginning of the test, each mouse was placed in the center of the light area facing the partition wall, and the middle gate was removed. Once four claws of one mouse entered the compartment, it was recorded as one entry. Supermaze software was used to record the distance in light area, retention time in light area and number of entries into light area in 5 minutes.

SMILES: CN1C(=O)CN=C(c2ccccc2)c2cc(Cl)ccc21 [Diazepam]
- Total running distance (mice [1]; gavage daily for one month, 1 h after last gavage): 29927 ± 2380
- Number of entries into central area (mice [1]; gavage one month): 12.78 ± 1.498
- Running distance in central area (mice [1]; gavage one month): 2168 ± 218.6
- Distance in light area (mice [2]): 18141 ± 1011
- Number of entries into light area (mice [2]): 18.92 ± 1.540
